{"source": "paper PMC4620497", "about": "(Scientific Reports, 2015)", "key": {"RIPK2": {"target": "T1, RIPK2 (Homo sapiens, UniProt O43353)", "T1 construct": "purchased DiscoveRx KINOMEscan (Ambit Biosciences)", "experiment": "KINOMEscan panel screen", "format": "binding", "conditions": "read-out: Percent Control(%)"}, "TRPM6": {"target": "T2, TRPM6 (Homo sapiens, UniProt Q9BX84)", "T2 construct": "purchased DiscoveRx KINOMEscan (Ambit Biosciences)", "experiment": "KINOMEscan panel screen", "format": "binding", "conditions": "read-out: Percent Control(%)"}, "CSK": {"target": "T3, CSK (Homo sapiens, UniProt P41240)", "T3 construct": "purchased DiscoveRx KINOMEscan (Ambit Biosciences)", "experiment": "KINOMEscan panel screen", "format": "binding", "conditions": "read-out: Percent Control(%)"}, "SW620": {"test_system": "SW620", "experiment": "MTT cell viability assay", "conditions": "Homo sapiens, SW-620, 72 h"}, "FLT3-D835H": {"target": "FLT3-D835H (Homo sapiens, UniProt P36888, D835H)", "experiment": "KINOMEscan panel screen", "format": "binding", "parameters": "purchased DiscoveRx KINOMEscan (Ambit Biosciences)", "conditions": "read-out: Percent Control(%)"}, "MAP3K4": {"target": "T4, MAP3K4 (Homo sapiens, UniProt Q9Y6R4)", "T4 construct": "purchased DiscoveRx KINOMEscan (Ambit Biosciences)", "experiment": "KINOMEscan panel screen", "format": "binding", "conditions": "read-out: Percent Control(%)"}, "SGK3": {"target": "T5, SGK3 (Homo sapiens, UniProt Q96BR1)", "T5 construct": "purchased DiscoveRx KINOMEscan (Ambit Biosciences)", "experiment": "KINOMEscan panel screen", "format": "binding", "conditions": "read-out: Percent Control(%)"}, "[1]": {"target": "T6, RSK3(Kin.Dom.2-C-terminal) (Homo sapiens, UniProt Q15349)", "T6 construct": "RSK3(Kin.Dom.2-C-terminal); purchased DiscoveRx KINOMEscan (Ambit Biosciences)", "T6 sequence (Q15349 415-672 limits assumed)": "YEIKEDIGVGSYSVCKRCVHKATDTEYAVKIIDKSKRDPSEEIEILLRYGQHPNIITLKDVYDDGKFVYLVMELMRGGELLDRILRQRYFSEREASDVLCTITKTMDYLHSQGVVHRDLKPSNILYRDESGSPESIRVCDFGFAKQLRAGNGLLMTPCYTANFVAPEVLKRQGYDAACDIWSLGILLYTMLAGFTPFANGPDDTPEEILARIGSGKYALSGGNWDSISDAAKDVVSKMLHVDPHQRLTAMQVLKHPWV", "experiment": "KINOMEscan panel screen", "format": "binding", "conditions": "read-out: Percent Control(%)"}, "IKK-beta": {"target": "T7, IKK-beta (Homo sapiens, UniProt O14920)", "T7 construct": "purchased DiscoveRx KINOMEscan (Ambit Biosciences)", "experiment": "KINOMEscan panel screen", "format": "binding", "conditions": "read-out: Percent Control(%)"}, "FRK": {"target": "T8, FRK (Homo sapiens, UniProt P42685)", "T8 construct": "purchased DiscoveRx KINOMEscan (Ambit Biosciences)", "experiment": "KINOMEscan panel screen", "format": "binding", "conditions": "read-out: Percent Control(%)"}, "HIPK4": {"target": "T9, HIPK4 (Homo sapiens, UniProt Q8NE63)", "T9 construct": "purchased DiscoveRx KINOMEscan (Ambit Biosciences)", "experiment": "KINOMEscan panel screen", "format": "binding", "conditions": "read-out: Percent Control(%)"}, "ERK3": {"target": "T10, ERK3 (Homo sapiens, UniProt Q16659)", "T10 construct": "purchased DiscoveRx KINOMEscan (Ambit Biosciences)", "experiment": "KINOMEscan panel screen", "format": "binding", "conditions": "read-out: Percent Control(%)"}, "OSR1": {"target": "T11, OSR1 (Homo sapiens, UniProt O95747)", "T11 construct": "purchased DiscoveRx KINOMEscan (Ambit Biosciences)", "experiment": "KINOMEscan panel screen", "format": "binding", "conditions": "read-out: Percent Control(%)"}, "PFCDPK1(P.falciparum)": {"target": "T12, PFCDPK1(P.falciparum) (Plasmodium falciparum, UniProt P62344)", "T12 construct": "purchased DiscoveRx KINOMEscan (Ambit Biosciences)", "experiment": "KINOMEscan panel screen", "format": "binding", "conditions": "read-out: Percent Control(%)"}, "MV4-11 tumor xenograft": {"test_system": "MV4-11 tumor xenograft", "experiment": "MV4-11 tumor xenograft model", "format": "in vivo", "experimental": "Female 5- to 6-week-old NOD-SCID mice (Beijing HFK Bioscience) were housed in a sterile environment and fed a standard diet ad libitum. […] A 100- μl aliquot of the cell suspension was injected subcutaneously into the hind flank of each mouse to establish the xenograft model. […] The tumor volume was calculated using the following formula: volume = a × b^2/2 (a, long diameter; b, short diameter).\nParaffin-embedded tumors were subjected to immunostaining with Ki67 (Thermo Fisher), transferase-mediated dUTP nick-end labeling (TUNEL, Thermo Fisher). The representative images were taken on a LEICA DM 2500 microscope with a LEICA DFC425 C camera. Image acquisition software: LAS V3.7.\n(a) MV4-11 cells (10^7 cells/mouse) were s.c. inoculated into NOD-SCID mice. […] The tumor volume and body weight were measured every 3 days during the treatment. The mean values ± SD are shown. […] Ki67 and TUNEL were detected with immunohistochemical. Representative images were shown. […] Tumors were harvested at the indicated time points, and the FLT3 signaling pathway was detected using western blot assays. The experiments were performed on three groups of mice. The results of the other two groups are given in Supplementary Data (Supplementary Fig. S8). […] The results shown in the histogram are the statistic data of three groups of mice. ns, not statistically significant, *P < 0.05, **P < 0.01. (e) The same harvested tumors were detected using real-time qPCR assays to test the expression of AXIN2 and NKD1 (the target genes of Wnt/β-catenin pathway). All results were normalized to the level of GAPDH (mean ± SEM from triplicate groups). ns, not statistically significant, *P < 0.05, **P < 0.01. (f) Kaplan-Meier plot of survival. […] The plasma concentrations were determined using liquid–liquid extraction followed by high-performance liquid chromatography (HPLC) with tandem mass spectrometric detection."}, "EPHA3": {"target": "T13, EPHA3 (Homo sapiens, UniProt P29320)", "T13 construct": "purchased DiscoveRx KINOMEscan (Ambit Biosciences)", "experiment": "KINOMEscan panel screen", "format": "binding", "conditions": "read-out: Percent Control(%)"}, "VRK2": {"target": "T14, VRK2 (Homo sapiens, UniProt Q86Y07)", "T14 construct": "purchased DiscoveRx KINOMEscan (Ambit Biosciences)", "experiment": "KINOMEscan panel screen", "format": "binding", "conditions": "read-out: Percent Control(%)"}, "DAPK1": {"target": "T15, DAPK1 (Homo sapiens, UniProt P53355)", "T15 construct": "purchased DiscoveRx KINOMEscan (Ambit Biosciences)", "experiment": "KINOMEscan panel screen", "format": "binding", "conditions": "read-out: Percent Control(%)"}, "YES": {"target": "T16, YES (Homo sapiens, UniProt P07947)", "T16 construct": "purchased DiscoveRx KINOMEscan (Ambit Biosciences)", "experiment": "KINOMEscan panel screen", "format": "binding", "conditions": "read-out: Percent Control(%)"}, "ALK(L1196M)": {"target": "T17, ALK(L1196M) (Homo sapiens, UniProt Q9UM73, L1196M)", "T17 construct": "purchased DiscoveRx KINOMEscan (Ambit Biosciences)", "T17 sequence (Q9UM73 19-1620 L1196M)": "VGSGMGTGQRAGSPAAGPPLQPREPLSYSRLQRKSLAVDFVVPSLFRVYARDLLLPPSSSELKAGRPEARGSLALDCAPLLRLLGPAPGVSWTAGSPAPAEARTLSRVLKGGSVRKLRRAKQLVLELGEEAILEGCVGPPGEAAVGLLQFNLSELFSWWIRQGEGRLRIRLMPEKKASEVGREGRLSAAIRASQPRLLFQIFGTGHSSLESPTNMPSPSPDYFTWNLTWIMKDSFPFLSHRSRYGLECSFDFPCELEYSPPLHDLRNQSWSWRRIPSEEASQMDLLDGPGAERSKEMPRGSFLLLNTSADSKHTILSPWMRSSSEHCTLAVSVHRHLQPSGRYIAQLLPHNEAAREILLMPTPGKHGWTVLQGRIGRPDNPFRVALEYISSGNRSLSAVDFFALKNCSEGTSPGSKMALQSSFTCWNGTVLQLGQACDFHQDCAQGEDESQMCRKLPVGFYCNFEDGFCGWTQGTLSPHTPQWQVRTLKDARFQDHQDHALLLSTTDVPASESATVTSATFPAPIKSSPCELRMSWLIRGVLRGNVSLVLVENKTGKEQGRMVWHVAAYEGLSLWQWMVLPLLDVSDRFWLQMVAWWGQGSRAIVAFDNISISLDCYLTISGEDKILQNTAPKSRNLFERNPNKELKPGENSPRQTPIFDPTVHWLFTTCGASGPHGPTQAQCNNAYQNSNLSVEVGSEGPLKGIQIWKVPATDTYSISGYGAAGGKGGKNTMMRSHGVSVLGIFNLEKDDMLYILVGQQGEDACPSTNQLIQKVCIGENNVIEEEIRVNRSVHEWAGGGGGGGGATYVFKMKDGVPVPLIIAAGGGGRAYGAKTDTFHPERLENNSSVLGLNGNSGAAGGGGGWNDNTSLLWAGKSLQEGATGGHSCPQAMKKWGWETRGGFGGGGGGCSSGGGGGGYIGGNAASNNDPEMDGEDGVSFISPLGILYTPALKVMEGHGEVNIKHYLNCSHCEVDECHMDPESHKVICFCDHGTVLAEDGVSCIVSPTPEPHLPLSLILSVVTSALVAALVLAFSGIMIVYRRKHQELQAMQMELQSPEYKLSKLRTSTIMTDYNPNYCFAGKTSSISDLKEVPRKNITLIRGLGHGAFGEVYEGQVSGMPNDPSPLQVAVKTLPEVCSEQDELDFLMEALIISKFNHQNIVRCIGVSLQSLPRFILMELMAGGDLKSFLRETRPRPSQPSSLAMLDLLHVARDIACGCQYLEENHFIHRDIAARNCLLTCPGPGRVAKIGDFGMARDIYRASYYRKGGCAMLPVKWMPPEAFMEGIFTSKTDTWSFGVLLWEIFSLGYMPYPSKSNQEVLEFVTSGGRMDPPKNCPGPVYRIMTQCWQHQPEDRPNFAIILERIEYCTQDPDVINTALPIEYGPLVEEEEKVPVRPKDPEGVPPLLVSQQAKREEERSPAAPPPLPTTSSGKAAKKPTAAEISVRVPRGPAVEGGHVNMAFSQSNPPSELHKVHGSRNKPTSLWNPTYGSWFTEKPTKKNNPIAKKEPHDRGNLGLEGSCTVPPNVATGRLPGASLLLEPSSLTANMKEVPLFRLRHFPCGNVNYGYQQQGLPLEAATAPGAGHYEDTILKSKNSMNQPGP", "experiment": "KINOMEscan panel screen", "format": "binding", "conditions": "read-out: Percent Control(%)"}, "GAK": {"target": "T18, GAK (Homo sapiens, UniProt O14976)", "T18 construct": "purchased DiscoveRx KINOMEscan (Ambit Biosciences)", "experiment": "KINOMEscan panel screen", "format": "binding", "conditions": "read-out: Percent Control(%)"}, "EPHA5": {"target": "T19, EPHA5 (Homo sapiens, UniProt P54756)", "T19 construct": "purchased DiscoveRx KINOMEscan (Ambit Biosciences)", "experiment": "KINOMEscan panel screen", "format": "binding", "conditions": "read-out: Percent Control(%)"}, "Miapaca-2": {"test_system": "Miapaca-2", "experiment": "MTT cell viability assay", "conditions": "Homo sapiens, MIA PaCa-2, 72 h"}, "BMPR2": {"target": "T20, BMPR2 (Homo sapiens, UniProt Q13873)", "T20 construct": "purchased DiscoveRx KINOMEscan (Ambit Biosciences)", "T20 sequence (Q13873 27-1038)": "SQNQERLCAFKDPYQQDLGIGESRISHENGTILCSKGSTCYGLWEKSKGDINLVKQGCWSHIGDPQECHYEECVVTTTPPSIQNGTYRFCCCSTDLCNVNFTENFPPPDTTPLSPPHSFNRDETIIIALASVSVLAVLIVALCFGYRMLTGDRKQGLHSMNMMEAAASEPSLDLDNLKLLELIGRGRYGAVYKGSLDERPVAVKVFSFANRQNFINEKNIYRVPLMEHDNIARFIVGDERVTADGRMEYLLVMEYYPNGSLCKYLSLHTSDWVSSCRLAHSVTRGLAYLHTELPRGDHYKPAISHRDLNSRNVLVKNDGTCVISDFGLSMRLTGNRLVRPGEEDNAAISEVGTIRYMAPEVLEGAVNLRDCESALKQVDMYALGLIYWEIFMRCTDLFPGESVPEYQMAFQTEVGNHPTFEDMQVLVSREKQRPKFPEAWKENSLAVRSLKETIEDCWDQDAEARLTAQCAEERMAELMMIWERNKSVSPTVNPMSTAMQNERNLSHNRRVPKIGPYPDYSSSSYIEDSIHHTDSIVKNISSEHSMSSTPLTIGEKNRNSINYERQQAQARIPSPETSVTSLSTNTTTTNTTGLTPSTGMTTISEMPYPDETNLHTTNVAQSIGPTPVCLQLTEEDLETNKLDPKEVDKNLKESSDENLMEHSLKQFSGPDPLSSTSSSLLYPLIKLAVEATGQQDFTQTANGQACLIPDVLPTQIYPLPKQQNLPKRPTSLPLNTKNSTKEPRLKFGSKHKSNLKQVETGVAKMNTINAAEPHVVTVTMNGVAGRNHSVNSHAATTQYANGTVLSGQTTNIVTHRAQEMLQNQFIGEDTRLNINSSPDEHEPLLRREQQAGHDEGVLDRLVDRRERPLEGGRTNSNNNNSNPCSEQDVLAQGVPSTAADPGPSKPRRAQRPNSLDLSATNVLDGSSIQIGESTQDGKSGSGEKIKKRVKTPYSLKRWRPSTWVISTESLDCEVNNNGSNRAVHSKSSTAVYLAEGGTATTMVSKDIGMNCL", "experiment": "KINOMEscan panel screen", "format": "binding", "conditions": "read-out: Percent Control(%)"}, "YSK4": {"target": "T21, YSK4 (Homo sapiens, UniProt Q56UN5)", "T21 construct": "purchased DiscoveRx KINOMEscan (Ambit Biosciences)", "experiment": "KINOMEscan panel screen", "format": "binding", "conditions": "read-out: Percent Control(%)"}, "INSRR": {"target": "T22, INSRR (Homo sapiens, UniProt P14616)", "T22 construct": "purchased DiscoveRx KINOMEscan (Ambit Biosciences)", "experiment": "KINOMEscan panel screen", "format": "binding", "conditions": "read-out: Percent Control(%)"}, "MAP3K3": {"target": "T23, MAP3K3 (Homo sapiens, UniProt Q99759)", "T23 construct": "purchased DiscoveRx KINOMEscan (Ambit Biosciences)", "experiment": "KINOMEscan panel screen", "format": "binding", "conditions": "read-out: Percent Control(%)"}, "TRKB": {"target": "T24, TRKB (Homo sapiens, UniProt Q16620)", "T24 construct": "purchased DiscoveRx KINOMEscan (Ambit Biosciences)", "T24 sequence (Q16620 32-822)": "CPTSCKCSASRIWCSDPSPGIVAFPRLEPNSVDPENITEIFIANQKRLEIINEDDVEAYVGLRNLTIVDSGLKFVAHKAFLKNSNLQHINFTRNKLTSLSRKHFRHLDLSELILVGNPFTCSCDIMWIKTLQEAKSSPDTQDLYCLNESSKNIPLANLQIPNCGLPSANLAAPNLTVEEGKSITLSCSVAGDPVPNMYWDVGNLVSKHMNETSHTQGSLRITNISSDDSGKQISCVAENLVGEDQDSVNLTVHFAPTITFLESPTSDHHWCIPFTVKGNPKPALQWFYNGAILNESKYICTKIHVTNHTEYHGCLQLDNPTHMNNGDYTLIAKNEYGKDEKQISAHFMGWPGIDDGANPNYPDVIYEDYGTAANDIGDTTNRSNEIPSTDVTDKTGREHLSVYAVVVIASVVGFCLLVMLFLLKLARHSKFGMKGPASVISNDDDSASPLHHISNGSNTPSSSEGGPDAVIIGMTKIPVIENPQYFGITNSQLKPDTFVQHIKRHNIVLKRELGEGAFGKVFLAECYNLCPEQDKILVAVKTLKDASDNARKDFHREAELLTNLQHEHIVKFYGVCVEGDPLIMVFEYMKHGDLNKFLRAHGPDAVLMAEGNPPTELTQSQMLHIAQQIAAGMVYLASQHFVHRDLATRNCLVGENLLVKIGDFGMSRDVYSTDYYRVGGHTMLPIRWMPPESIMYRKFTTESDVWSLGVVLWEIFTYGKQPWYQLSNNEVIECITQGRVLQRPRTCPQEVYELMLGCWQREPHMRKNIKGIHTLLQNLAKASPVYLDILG", "experiment": "KINOMEscan panel screen", "format": "binding", "conditions": "read-out: Percent Control(%)"}, "BRAF(V600E)": {"target": "T25, BRAF(V600E) (Homo sapiens, UniProt P15056, V600E)", "T25 construct": "purchased DiscoveRx KINOMEscan (Ambit Biosciences)", "T25 sequence (P15056 whole entry V600E)": "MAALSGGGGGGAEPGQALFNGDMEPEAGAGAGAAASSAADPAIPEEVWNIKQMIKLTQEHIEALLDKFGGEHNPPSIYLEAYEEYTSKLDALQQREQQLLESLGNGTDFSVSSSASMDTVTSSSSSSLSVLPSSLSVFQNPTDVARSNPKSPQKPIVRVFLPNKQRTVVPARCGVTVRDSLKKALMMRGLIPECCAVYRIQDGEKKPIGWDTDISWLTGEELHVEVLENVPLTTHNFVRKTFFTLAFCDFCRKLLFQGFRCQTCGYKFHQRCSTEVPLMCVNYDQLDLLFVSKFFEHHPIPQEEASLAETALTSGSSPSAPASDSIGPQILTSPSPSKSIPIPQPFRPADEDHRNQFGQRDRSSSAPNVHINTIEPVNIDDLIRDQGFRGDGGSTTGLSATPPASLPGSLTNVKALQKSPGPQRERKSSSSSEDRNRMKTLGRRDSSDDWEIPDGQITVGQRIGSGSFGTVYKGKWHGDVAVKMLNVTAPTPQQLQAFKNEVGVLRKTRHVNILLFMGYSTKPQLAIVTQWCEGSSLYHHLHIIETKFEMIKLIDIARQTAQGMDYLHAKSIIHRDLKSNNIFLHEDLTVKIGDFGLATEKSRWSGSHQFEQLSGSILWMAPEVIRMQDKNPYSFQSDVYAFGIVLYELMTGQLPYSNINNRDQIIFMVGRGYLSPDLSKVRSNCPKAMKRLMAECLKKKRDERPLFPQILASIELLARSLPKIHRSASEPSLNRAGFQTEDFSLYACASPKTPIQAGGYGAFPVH", "experiment": "KINOMEscan panel screen", "format": "binding", "conditions": "read-out: Percent Control(%)"}}, "note": "pIC50: −log10 of the molar value.", "data": [{"smiles": "CC(C)(C)c1cc(NC(=O)Nc2ccc(Oc3ncnc4[nH]ncc34)c(F)c2)no1", "note": "[SKLB-677, 1-(4-(1H-pyrazolo[3,4-d]pyrimidin-4-yloxy)-3-fluorophenyl)-3-(5-tert-butylisoxazol-3-yl)urea]", "values": [{"measurement": "remaining binding at 10 µM", "setting": "RIPK2", "result": 0.75, "unit": "%"}, {"measurement": "remaining binding at 10 µM", "setting": "TRPM6", "result": 89, "unit": "%"}, {"measurement": "remaining binding at 10 µM", "setting": "CSK", "result": 76, "unit": "%"}, {"measurement": "pIC50", "setting": "SW620", "result": "< 5.00"}, {"measurement": "remaining binding at 10 µM", "setting": "FLT3-D835H", "result": 0, "unit": "%"}, {"measurement": "remaining binding at 10 µM", "setting": "MAP3K4", "result": 69, "unit": "%"}, {"measurement": "remaining binding at 10 µM", "setting": "SGK3", "result": 46, "unit": "%"}, {"measurement": "remaining binding at 10 µM", "setting": "[1]", "result": 19, "unit": "%"}, {"measurement": "remaining binding at 10 µM", "setting": "IKK-beta", "result": 64, "unit": "%"}, {"measurement": "remaining binding at 10 µM", "setting": "FRK", "result": 0, "unit": "%"}, {"measurement": "remaining binding at 10 µM", "setting": "HIPK4", "result": 0.45, "unit": "%"}, {"measurement": "remaining binding at 10 µM", "setting": "ERK3", "result": 79, "unit": "%"}, {"measurement": "remaining binding at 10 µM", "setting": "OSR1", "result": 36, "unit": "%"}, {"measurement": "remaining binding at 10 µM", "setting": "PFCDPK1(P.falciparum)", "result": 26, "unit": "%"}, {"measurement": "tumor inhibition rate", "setting": "MV4-11 tumor xenograft; 1 mg/kg/d orally once per day for 21 days", "result": 66, "unit": "%"}, {"measurement": "tumor response", "setting": "MV4-11 tumor xenograft; 3 mg/kg/d orally for 8 days", "result": "complete tumor regression"}, {"measurement": "toxicity in xenograft mice", "setting": "MV4-11 tumor xenograft; 10 mg/kg/d or 3 mg/kg/d orally", "result": "without obvious toxicity"}, {"measurement": "tumor response", "setting": "MV4-11 tumor xenograft; 10 mg/kg/d orally for 3 days", "result": "complete tumor regression"}, {"measurement": "Ki67-positive cells in tumors compared with control group", "setting": "MV4-11 tumor xenograft; immunohistochemistry", "result": "evidently fewer"}, {"measurement": "percentage of TUNEL-positive cells in tumors compared with vehicle", "setting": "MV4-11 tumor xenograft; immunohistochemistry", "result": "increased"}, {"measurement": "remaining binding at 10 µM", "setting": "EPHA3", "result": 24, "unit": "%"}, {"measurement": "remaining binding at 10 µM", "setting": "VRK2", "result": 100, "unit": "%"}, {"measurement": "remaining binding at 10 µM", "setting": "DAPK1", "result": 74, "unit": "%"}, {"measurement": "remaining binding at 10 µM", "setting": "YES", "result": 27, "unit": "%"}, {"measurement": "remaining binding at 10 µM", "setting": "ALK(L1196M)", "result": 71, "unit": "%"}, {"measurement": "remaining binding at 10 µM", "setting": "GAK", "result": 100, "unit": "%"}, {"measurement": "remaining binding at 10 µM", "setting": "EPHA5", "result": 0.7, "unit": "%"}, {"measurement": "pIC50", "setting": "Miapaca-2", "result": "< 5.00"}, {"measurement": "remaining binding at 10 µM", "setting": "BMPR2", "result": 14, "unit": "%"}, {"measurement": "remaining binding at 10 µM", "setting": "YSK4", "result": 0.15, "unit": "%"}, {"measurement": "remaining binding at 10 µM", "setting": "INSRR", "result": 42, "unit": "%"}, {"measurement": "remaining binding at 10 µM", "setting": "MAP3K3", "result": 100, "unit": "%"}, {"measurement": "remaining binding at 10 µM", "setting": "TRKB", "result": 0.05, "unit": "%"}, {"measurement": "remaining binding at 10 µM", "setting": "BRAF(V600E)", "result": 0.05, "unit": "%"}]}]}
